Reference: publication PMC11784839, “Monoaminergic neurotransmitters are bimodal effectors of tau aggregation” (Science Advances, 2025)

Molecular target: tau (Homo sapiens, UniProt P10636)
Assay: MCE Phenols Library screening, tau biosensor cell seeding assay (AvZ)
Type: cell-based
Conditions: for Z repl 1 / Z Repl 2: Z score; for Z repl 1 / raw data 1: replicate 1; for Z Repl 2 / raw data 2: replicate 2; for AvZ (average z score of seeding, SDs from the mean level of seeding): 10 μM phenol in cell cultures, AD brain homogenate preincubated 16 hours, two biological replicates, positive = catalyzes seeding, negative = inhibits
[1] = average Z score of two replicates, Phenols Library screen
[2] = average Z score of the two replicates, MCE Phenols Library screen
[3] = average puncta of the two replicates
[4] = average Z score of the two replicates, tau seeding
[5] = average Z score of the two replicates, tau biosensor seeding, MCE Phenols Library screen

Sequence of tau (P10636 623-695 limits assumed): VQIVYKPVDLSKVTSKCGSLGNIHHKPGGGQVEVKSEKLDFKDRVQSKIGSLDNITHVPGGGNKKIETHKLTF

Z repl 1	Z Repl 2	av Z [1]	av puncta (average of raw data 1 and 2)	raw data 1 (puncta)	raw data 2 (puncta)	av Z [2]	av puncta [3]	av Z [4]	av Z [5]	raw data 1 (raw puncta)	raw data 2 (raw puncta)	AvZ (average z score of seeding, SDs from the mean level of seeding)	Compound
0.062	-0.242	-0.09	18635	27088.2	10181.7	–	–	–	–	–	–	–	COc1cc(-c2cc(=O)c3c(O)c(OC)c(O)cc3o2)cc(O)c1OC
-0.562	-0.434	–	–	19599.6	8130.05	-0.498	13864.9	–	–	–	–	–	O=c1c(O[C@@H]2O[C@H](CO)[C@@H](O)[C@H](O)[C@H]2O)c(-c2ccc(O)c(O)c2)oc2cc(O[C@@H]3O[C@H](CO[C@@H]4O[C@H](CO)[C@@H](O)[C@H](O)[C@H]4O)[C@@H](O)[C@H](O)[C@H]3O)cc(O)c12
-0.599	-0.958	–	10843.5	19152.5	2534.57	-0.779	–	–	–	–	–	–	O=C(O)CC(=O)OC[C@H]1O[C@@H](Oc2c(-c3ccc(O)c(O)c3)oc3cc(O)cc(O)c3c2=O)[C@H](O)[C@@H](O)[C@@H]1O
0.189	0.95	–	25767.5	28623.9	22911	–	–	0.57	–	–	–	–	COc1cc([C@@H]2OC[C@@H]3[C@H]2CO[C@H]3c2cc(OC)c(O[C@@H]3O[C@H](CO)[C@@H](O)[C@H](O)[C@H]3O[C@@H]3OC[C@](O)(CO)[C@H]3O)c(OC)c2)cc(OC)c1O
–	–	–	22344.8	29267.2	15422.3	–	–	–	–	–	–	–	Cl.NCC(O)c1ccc(O)c(O)c1 (racemic) [DL-Norepinephrine (hydrochloride)]
0.043	-0.387	-0.172	17749.2	26861	8637.46	–	–	–	–	–	–	–	COc1cc(/C=C/C(=O)O[C@H]2C[C@@](O)(C(=O)O)C[C@H](O)[C@@H]2O)ccc1O (stereo in doubt) [3-Feruloylquinic acid]
-0.457	-0.234	–	–	–	–	-0.346	15561.2	–	–	20858.2	10264.2	–	O=C(O[C@H](Cc1ccc(O)c(O)c1)C(=O)O)C1=Cc2cc(O)c(O)cc2[C@H](c2ccc(O)c(O)c2)[C@H]1C(=O)OC(Cc1ccc(O)c(O)c1)C(=O)O (stereo in doubt) [Rabdosiin]
-0.904	0.064	–	–	–	–	-0.42	14474.2	–	–	15493.9	13454.5	–	CC=C1[C@H](O[C@@H]2O[C@H](CO)[C@@H](O)[C@H](O)[C@H]2O)OC=C(C(=O)OC)[C@H]1CC(=O)OC[C@H]1O[C@@H](OCCc2ccc(O)cc2)[C@H](O)[C@@H](O)[C@@H]1O (stereo in doubt) [Specneuzhenide]
-1.751	-1.021	–	3594.24	5324.12	1864.38	-1.386	–	–	–	–	–	–	O=C(OC[C@H]1OC(OC(=O)c2cc(O)c(O)c(O)c2)[C@H](OC(=O)c2cc(O)c(O)c(O)c2)[C@@H](OC(=O)c2cc(O)c(O)c(O)c2)[C@@H]1O)c1cc(O)c(O)c(O)c1 (stereo partly drawn) [1,2,3,6-Tetragalloylglucose]
-1.617	-1.152	–	3698	6931.48	464.513	–	–	–	–	–	–	-1.385	Oc1ccc(O)c(O)c1 [1,2,4-Trihydroxybenzene]
-1.077	-0.588	–	9954.06	13417.7	6490.43	-0.832	–	–	–	–	–	–	O=C(C=Cc1ccc(O)c(O)c1)OC1CC(OC(=O)C=Cc2ccc(O)c(O)c2)(C(=O)O)CC(O)C1O (stereo not drawn) [1,3-Dicaffeoylquinic acid]
1.606	0.927	–	34150.6	45632.1	22669.1	–	–	–	1.267	–	–	–	Oc1cccc2ccccc12 [1-Naphthol]
-0.93	-0.817	–	9615.07	15187.3	4042.85	-0.873	–	–	–	–	–	–	O=C(O[C@H]1[C@H](Oc2c(-c3ccc(O)c(O)c3)oc3cc(O)cc(O)c3c2=O)O[C@H](CO)[C@H](O)[C@@H]1O)c1cc(O)c(O)c(O)c1 [2""-O-Galloylhyperin]
0.483	-0.487	–	19854.9	32144.5	7565.33	–	–	–	–	–	–	-0.002	CC(=O)c1ccc(C)cc1O [2'-Hydroxy-4'-methylacetophenone]
-0.335	-0.39	–	–	–	–	–	15461.1	–	–	22324.8	8597.33	-0.363	O=C(O)c1ccc(O)c(O)c1O [2,3,4-Trihydroxybenzoic acid]
0.385	-0.124	–	21205.2	30969.9	11440.6	–	–	–	–	–	–	0.13	COc1ccc(C(C)=O)c(O)c1O [2,3-Dihydroxy-4-methoxyacetophenone]
-0.264	-0.663	–	–	23175.8	5682.84	–	14429.3	–	–	–	–	-0.464	CC(=O)c1cc(O)ccc1O [2,5-Dihydroxyacetophenone]
0.475	0.955	–	27508.9	32047.3	22970.5	–	–	–	–	–	–	0.715	O=C(O)c1c(O)cccc1O [2,6-Dihydroxybenzoic acid]
0.44	-0.434	–	19881.8	31637.3	8126.32	–	–	–	–	–	–	0.003	Cc1cc(O)cc(C)c1O [2,6-Dimethylhydroquinone]
0.346	-0.011	–	21574.5	30502.1	12646.9	–	–	–	–	–	–	0.167	CCc1cccc(C)c1O [2-Ethyl-6-methylphenol]
-1.341	-0.32	–	9796.98	10246.8	9347.15	–	–	–	–	–	–	-0.831	O=C(O)Cc1ccccc1O [2-Hydroxyphenylacetic acid]
1.646	0.7	–	33178.1	46109.4	20246.7	–	–	–	1.173	–	–	–	COc1cc2c(cc1O)CC[C@@H]1[C@@H]2CC[C@]2(C)[C@@H](O)CC[C@@H]12 [2-Methoxyestradiol]
1.167	0.175	–	27499.2	40362.2	14636.1	–	–	–	–	–	–	0.671	OCCc1ccccc1 [2-Phenylethanol]
-0.338	-0.997	–	–	22292.7	2117.17	–	12205	–	–	–	–	-0.667	CC(=O)c1ccc(O)c(O)c1 [3',4'-Dihydroxyacetophenone]
-0.14	0.484	–	21302.3	24671.3	17933.3	–	–	0.172	–	–	–	–	COc1cc(/C=C/c2ccc(O)c(O)c2)cc(OC)c1 [3'-Hydroxypterostilbene]
-0.715	-0.346	–	–	17766.4	9073.25	-0.53	13419.8	–	–	–	–	–	O=c1c(-c2ccc(O)c(O)c2)coc2c([C@@H]3O[C@H](CO)[C@@H](O)[C@H](O)[C@H]3O)c(O)ccc12 [3'-Hydroxypuerarin]

Compound	Z repl 1	Z Repl 2	av Z [1]	av puncta (average of raw data 1 and 2)	raw data 1 (puncta)	raw data 2 (puncta)	av Z [2]	av puncta [3]	av Z [4]	av Z [5]	raw data 1 (raw puncta)	raw data 2 (raw puncta)	AvZ (average z score of seeding, SDs from the mean level of seeding)
OC[C@H]1O[C@@H](Oc2cc(O)cc(/C=C/c3ccc(O)cc3)c2)[C@H](O)[C@@H](O)[C@@H]1O (mixture of isomers) [(E/Z)-Polydatin]	0.505	-0.119	–	21956.3	32412.5	11500.1	–	–	0.193	–	–	–	–
CCC1(O)C(=O)OCc2c1cc1n(c2=O)Cc2cc3cc(O)ccc3nc2-1 (racemic) [(±)-10-Hydroxycamptothecin]	2.809	1.992	–	47054	60066.9	34041	–	–	–	2.4	–	–	–
Cc1c(C)c2c(c(C)c1O)CCC(C)(CCCC(C)CCCC(C)CCCC(C)C)O2 (racemic) [DL-alpha-Tocopherol]	-0.849	-0.142	–	–	16151.3	11251.7	-0.496	13701.5	–	–	–	–	–
O=C(O)c1ccc(O)cc1O [2,4-Dihydroxybenzoic acid]	0.635	-0.383	–	21320.5	33969.7	8671.41	–	–	–	–	–	–	0.126
Oc1c(Br)cccc1Br [2,6-Dibromophenol]	-0.611	0.25	–	17229.5	19019.6	15439.4	–	–	–	–	–	–	-0.18
